Earlier results on three compounds are cited in patent US20080237028A1, “Nucleation in liquid, methods of use thereof and methods of generation thereof” (Hanoch KISLEV, priority 2006, published 2008).

Series [1] relates to β-lactamase negative strain of Klebsiella pneumoniae. Particulars: planktonic.
Series [2] deals with β-lactamase negative strain of Klebsiella pneumoniae grown as a biofilm.
The subject of series [3] is biofilms of wild-type Pseudomonas aeruginosa. The note with it: compared to equivalent bacteria lacking ability to generate biofilm.
Series [4] has as its system biofilm forming P. aeroginosa bacteria. The note with it: mature biofilm grown from bacteria treated with quorum sensing molecules; not in the untreated sample.

Converted amounts (≈) assume the structure as drawn.

`CC1(C)S[C@@H]2[C@H](NC(=O)[C@H](N)c3ccccc3)C(=O)N2[C@H]1C(=O)O` [Ampicillin]: the “minimum inhibitory concentration (MIC)” value in series [1] is 2 µg/mL (≈ 5.72 µM). The “increase in MIC” value in series [2] (biofilm versus planktonic, 5000 μg/mL) is recorded as 2500 fold. The “survival of biofilm under treatment” value in series [2] (treated for 4 hours with 5000 μg/mL ampicillin) is reported as “survives well”.

For `OCl` [sodium hypochlorite], the “concentration increase required to kill biofilms” value in series [3] is listed as 600 fold.

In the case of `NC[C@H]1O[C@H](O[C@H]2[C@H](O)[C@@H](O[C@H]3O[C@H](CO)[C@@H](O)[C@H](N)[C@H]3O)[C@H](N)C[C@@H]2N)[C@H](N)C[C@@H]1O` [tobramicyn], the “bacteria death within biofilm” value in series [4] is “complete bacteria death”.
